From US20090041617A1, “PURIFIED HYDROGEN PEROXIDE GAS MICROBIAL CONTROL METHODS AND DEVICES” (priority 2007, published 2009)
Read-outs that look alike come from different tables or passages of the source.

What was measured:
A. niger (ATCC 16404) = conditions: for Average CFU/Test carrier (Survivors in the test) / Percent Reduction Compared to Corresponding Natural Die-off / Percent Reduction as Compared to Time Zero Control: PHPG 0.005-0.01 ppm, 35%-40% relative humidity
Description: (§1) The device was subjected to tests designed and implemented by two accredited laboratories to: (a) measure the output of Purified Hydrogen Peroxide Gas (PHPG); (b) confirm that the output was substantially free of ozone; (c) confirm that the output was substantially free of VOC's; (d) measure the efficacy of PHPG against the Feline Calicivirus (an EPA-approved substitute for noroviruses), Methicillin Resistant Staphylococcus Aureous (MRSA), Vancomyacin Resistant Enterococcus Faecalis (VRE), Clostridium Difficile (C-Diff), Geobacillus Stearothermophilus, (a stable bacteria used by the insurance industry to verify successful microbial remediation), and Aspergillus Niger (a common fungus); and (e) test at a variety of ambient relative humidities including 35% to 40% at 70 to 72 degrees Fahrenheit, 56% to 59% at 81 to 85 degrees Fahrenheit, and 98% at 78 degrees Fahrenheit.
(§2) In quantitative microbial testing at ATS labs in Eagan, Minn. the following data was collected.

[1] = system: C. difficile (ATCC 700792); conditions: for Average CFU/Test carrier (Survivors in the test) / Percent Reduction Compared to Corresponding Natural Die-off / Percent Reduction as Compared to Time Zero Control: PHPG 0.005-0.01 ppm, 35%-40% relative humidity
Description: as §1, §2

[2] = system: Feline Calicivirus (Norovirus substitute); conditions: for Average Virus Infectivity Observed After Exposure / Percent Reduction Compared to Corresponding Natural Die-off / Percent Reduction as Compared to Time Zero Virus Control: PHPG 0.005-0.01 ppm, 35%-40% relative humidity
Description: as §1, §2

MRSA (ATCC 33592) = conditions: for Average CFU/Test carrier (Survivors in the test) / Percent Reduction Compared to Corresponding Natural Die-off / Percent Reduction as Compared to Time Zero Control: PHPG 0.005-0.01 ppm, 35%-40% relative humidity
Description: as §1, §2

VRE (ATCC 51575) = conditions: for Average CFU/Test carrier (Survivors in the test) / Percent Reduction Compared to Corresponding Natural Die-off / Percent Reduction as Compared to Time Zero Control: PHPG 0.005-0.01 ppm, 35%-40% relative humidity
Description: as §1, §2

[3] = system: Geobacillus Stearothermophilus
Description: as §1

[4] = PHPG about 0.005 ppm to about 0.10 ppm in the environment

Structure (SMILES): OO [PHPG, Purified Hydrogen Peroxide Gas]
- Average CFU/Test carrier (Survivors in the test) (A. niger (ATCC 16404); 2 hours): 1.9 × 10^5 CFU/ CFU/Carrier
- Percent Reduction Compared to Corresponding Natural Die-off (A. niger (ATCC 16404); 2 hours): 13.6%
- Percent Reduction as Compared to Time Zero Control (A. niger (ATCC 16404); 2 hours): 19.1%
- Average CFU/Test carrier (Survivors in the test) (A. niger (ATCC 16404); 6 hours): 4.67 × 10^4 CFU/ CFU/Carrier
- Percent Reduction Compared to Corresponding Natural Die-off (A. niger (ATCC 16404); 6 hours): 81.3%
- Percent Reduction as Compared to Time Zero Control (A. niger (ATCC 16404); 6 hours): 80.1%
- Average CFU/Test carrier (Survivors in the test) (A. niger (ATCC 16404); 24 hours): 1.2 × 10^4 CFU/ CFU/Carrier
- Percent Reduction Compared to Corresponding Natural Die-off (A. niger (ATCC 16404); 24 hours): 90.8%
- Percent Reduction as Compared to Time Zero Control (A. niger (ATCC 16404); 24 hours): 94.9%
- efficacy in words (A. niger (ATCC 16404); [4]): proven effective
- Average CFU/Test carrier (Survivors in the test) ([1]; 2 hours): 2.18 × 10^5 CFU/ CFU/Carrier
- Percent Reduction Compared to Corresponding Natural Die-off ([1]; 2 hours): 9.2%
- Percent Reduction as Compared to Time Zero Control ([1]; 2 hours): 27.3%
- Average CFU/Test carrier (Survivors in the test) ([1]; 6 hours): 1.1 × 10^5 CFU/ CFU/Carrier
- Percent Reduction Compared to Corresponding Natural Die-off ([1]; 6 hours): 60.6%
- Percent Reduction as Compared to Time Zero Control ([1]; 6 hours): 63.3%
- Average CFU/Test carrier (Survivors in the test) ([1]; 24 hours): 7.3 × 10^4 CFU/ CFU/Carrier
- Percent Reduction Compared to Corresponding Natural Die-off ([1]; 24 hours): 70.4%
- Percent Reduction as Compared to Time Zero Control ([1]; 24 hours): 75.7%
- efficacy in words [1, 4]: proven effective
- efficacy in words [2, 4]: proven effective
- Average Virus Infectivity Observed After Exposure ([2]; exposure 2 hrs): 4.3 log10
- Percent Reduction Compared to Corresponding Natural Die-off ([2]; exposure 2 hrs): 96.8%
- Percent Reduction as Compared to Time Zero Virus Control ([2]; exposure 2 hrs): 99.5%
- Average Virus Infectivity Observed After Exposure ([2]; exposure 6 hrs): 2.3 log10
- Percent Reduction Compared to Corresponding Natural Die-off ([2]; exposure 6 hrs): 99.8%
- Percent Reduction as Compared to Time Zero Virus Control ([2]; exposure 6 hrs): 99.995%
- Percent Reduction Compared to Corresponding Natural Die-off ([2]; exposure 24 hrs): 99.8%
- Percent Reduction as Compared to Time Zero Virus Control ([2]; exposure 24 hrs): ≧99.9999%
- Average Virus Infectivity Observed After Exposure ([2]; exposure 24 hrs, virus detected in only one replicate): ≦0.6 log10
- Average CFU/Test carrier (Survivors in the test) (MRSA (ATCC 33592); 2 hours): <1 (no survivors) CFU/Test carrier
- Percent Reduction Compared to Corresponding Natural Die-off (MRSA (ATCC 33592); 2 hours): >99.9999%
- Percent Reduction as Compared to Time Zero Control (MRSA (ATCC 33592); 2 hours): >99.9999%
- Average CFU/Test carrier (Survivors in the test) (MRSA (ATCC 33592); 6 hours): <1 (no survivors) CFU/Test carrier
- Percent Reduction Compared to Corresponding Natural Die-off (MRSA (ATCC 33592); 6 hours): >99.9999%
- Percent Reduction as Compared to Time Zero Control (MRSA (ATCC 33592); 6 hours): >99.9999%
- Average CFU/Test carrier (Survivors in the test) (MRSA (ATCC 33592); 24 hours): <1 (no survivors) CFU/Test carrier
- Percent Reduction Compared to Corresponding Natural Die-off (MRSA (ATCC 33592); 24 hours): >99.9999%
- Percent Reduction as Compared to Time Zero Control (MRSA (ATCC 33592); 24 hours): >99.9999%
- efficacy in words (MRSA (ATCC 33592); [4]): proven effective
- Average CFU/Test carrier (Survivors in the test) (VRE (ATCC 51575); 2 hours): <1 (no survivors) CFU/Test carrier
- Percent Reduction Compared to Corresponding Natural Die-off (VRE (ATCC 51575); 2 hours): >99.999%
- Percent Reduction as Compared to Time Zero Control (VRE (ATCC 51575); 2 hours): >99.9999%
- Average CFU/Test carrier (Survivors in the test) (VRE (ATCC 51575); 6 hours): <1 (no survivors) CFU/Test carrier
- Percent Reduction Compared to Corresponding Natural Die-off (VRE (ATCC 51575); 6 hours): >99.99%
- Percent Reduction as Compared to Time Zero Control (VRE (ATCC 51575); 6 hours): >99.9999%
- Average CFU/Test carrier (Survivors in the test) (VRE (ATCC 51575); 24 hours): <1 (no survivors) CFU/Test carrier
- Percent Reduction Compared to Corresponding Natural Die-off (VRE (ATCC 51575); 24 hours): >99.9%
- Percent Reduction as Compared to Time Zero Control (VRE (ATCC 51575); 24 hours): >99.9999%
- efficacy in words (VRE (ATCC 51575); [4]): proven effective
- efficacy in words [3, 4]: proven effective
- reduction of the bacteria on inoculated chips ([3]; several tests, all cases, within a matter of hours): significant reduction
